# Earlier results, collected in patent US20050232952A1, “Self emulsifying drug delivery systems for poorly soluble drugs” (priority 2002, published 2005).
# Conditions: humans
compound,measurement,value
"CC(=O)O[C@H]1C(=O)[C@@]2(C)[C@H]([C@H](OC(=O)c3ccccc3)[C@]3(O)C[C@H](OC(=O)[C@H](O)[C@@H](NC(=O)c4ccccc4)c4ccccc4)C(C)=C1C3(C)C)[C@]1(OC(C)=O)CO[C@@H]1C[C@@H]2O [paclitaxel, Paclitaxel]",systemic bioavailability after oral paclitaxel administration,less than 6%
